The target in one experiment is T1, IDO1 (Homo sapiens, UniProt P14902).
T1 construct: No. 20160706
As to the kind of experiment: IDO1 enzymatic assay. The conditions noted are these: for IC50: mean ± SD of at least two independent assays. Type of experiment: biochemical. Here is the method: (1) Prepare 100× compound of the final desired highest inhibitor concentration in reaction by 100% DMSO. For example, if compounds test at 10 μM, then prepare 1 mM of compound solution in this step. Then dilute compound with DMSO in 3-fold mode to obtain different concentrations. Mark as source plate. (2) Add 100 μL of 100% DMSO to column 1 and column 12 for background control and no compound high control respectively.
Transfer 2 μL of each well from the 96-well source plate to a 96-well assay plate.
• (3) Enzyme Reaction • Prepare 2× enzyme solution. Add IDO-1 in assay buffer. • Prepare 2× substrate solution. Add L-tryptophan, ascorbate, methylene blue, catalase in the assay buffer. • Assay plate already contains 2 μL of compound in 100% DMSO. • Transfer 2× enzyme solution to the assay plate. Add 100 μL of 2× enzyme solution to each well of the 96-well assay plate. • Incubate at room temperature for 10 min. • Transfer […] to each well of the 96-well assay plate. • Read OD321 kinetically by Spectramax (Molecular Devices, LLC, San Jose, CA, USA). • (4) Curve Fitting • Copy data from Spectramax program. Percent inhibition = (max-conversion)/(max − min) × 100. “max” stands for high control; “min” stands for low control. • Fit the data in XL-Fit to obtain IC50 values. Equation used is: Y = Bottom + (Top − Bottom)/(1 + 10^((LogIC50 − X) × Hill Slope)

Another experiment has as its system A549 cell line. As to the kind of experiment: Anti-proliferation assay in A549 cell line (CellTiter-Glo). The settings on record: Homo sapiens; A549 cells, 48 h, CTG assay. Type of experiment: cell-based. Here is the method: Cell viability was measured by the CellTiter-Glo Luminescent (CTG) assay. A549 cells (ATCC, Cat. No.CCL-185) were seeded (2000 cells/well) in 96-well plates and cells were left to incubate at 37 °C for 24 h. After 24 h, prepare compounds with 5-fold dilution in DMSO to the compound plate (200-fold of the final concentration) and transfer 5 μL from the compound plate to 95 μL intermediate medium in the intermediate plate (10-fold of the final concentration). Then transfer 10 μL from the intermediate plate to the cell plates. The final DMSO is 0.5%. After continuing to incubate for 48 h, add 50 μL CTG reagent to each well and read luminescence according to CTG product manual.
In general terms: ATP-based viability assays read luminescence as a measure of living cells.

Another experiment deals with T2, HDAC1 (Homo sapiens, UniProt Q13547).
T2 construct: purchased BPS Bioscience Inc. 50051
The experiment is described as follows: HDAC enzymatic assay. It is filed as biochemical. The conditions noted are these: mean ± SD of at least two independent assays. Here is the method: • (1) Prepare 1× assay buffer (modified Tris Buffer). • (2) Compound serial dilution: Transfer compounds to assay plate by Echo in 100% DMSO. The final fraction of DMSO is 1%. • (3) Prepare enzyme solution in 1× assay buffer. • (4) Add trypsin and Ac-peptide substrate in 1× assay buffer to make the substrate solution. • (5) Transfer 15 μL of enzyme solution to assay plate or for low control transfer 15 μL of 1× assay buffer. • (6) Incubate at room temperature for 15 min. • (7) Add 10 μL of substrate solution to each well to start reaction. • (8) Incubate at room temperature for 60 min. • (9) Read the plate on Synergy MX with excitation at 355 nm and emission at 460 nm. • (10) Curve fitting: Fit the data in Excel to obtain inhibition values using Equation (1).
Inh% = (Max − Signal)/(Max − Min) × 100(1)
Fit the data in XL-Fit to obtain IC50 values using Equation (2); Y = Bottom + (Top − Bottom)/(1 + 10^((LogIC50 − X) × Hill Slope))(2)
Y is %inhibition and X is compound concentration.

Setting [1] is: 10 μM, Table 1 natural products, read-out: IDO1 Inhibition @ 10 μM (%).
Where [2] appears, read: 10 μM, Tables 2 and 3, read-out: IDO1 % Inhibition at 10 μM (converted).
[3] abbreviates: 10 μM, Table 1 natural products.

Like-named read-outs stand apart in the source and are kept apart here.

T1 sequence (P14902 whole entry): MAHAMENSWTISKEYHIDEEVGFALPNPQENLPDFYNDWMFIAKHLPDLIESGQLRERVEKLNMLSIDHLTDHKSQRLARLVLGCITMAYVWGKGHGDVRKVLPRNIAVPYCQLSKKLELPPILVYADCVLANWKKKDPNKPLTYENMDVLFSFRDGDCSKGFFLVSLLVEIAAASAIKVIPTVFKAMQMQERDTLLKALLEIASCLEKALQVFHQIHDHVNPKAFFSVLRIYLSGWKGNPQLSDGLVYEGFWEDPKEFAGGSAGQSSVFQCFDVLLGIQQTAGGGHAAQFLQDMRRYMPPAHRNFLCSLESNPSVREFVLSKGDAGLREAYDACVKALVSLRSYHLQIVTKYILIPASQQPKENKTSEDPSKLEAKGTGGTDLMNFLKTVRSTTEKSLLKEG
T2 sequence (Q13547 whole entry): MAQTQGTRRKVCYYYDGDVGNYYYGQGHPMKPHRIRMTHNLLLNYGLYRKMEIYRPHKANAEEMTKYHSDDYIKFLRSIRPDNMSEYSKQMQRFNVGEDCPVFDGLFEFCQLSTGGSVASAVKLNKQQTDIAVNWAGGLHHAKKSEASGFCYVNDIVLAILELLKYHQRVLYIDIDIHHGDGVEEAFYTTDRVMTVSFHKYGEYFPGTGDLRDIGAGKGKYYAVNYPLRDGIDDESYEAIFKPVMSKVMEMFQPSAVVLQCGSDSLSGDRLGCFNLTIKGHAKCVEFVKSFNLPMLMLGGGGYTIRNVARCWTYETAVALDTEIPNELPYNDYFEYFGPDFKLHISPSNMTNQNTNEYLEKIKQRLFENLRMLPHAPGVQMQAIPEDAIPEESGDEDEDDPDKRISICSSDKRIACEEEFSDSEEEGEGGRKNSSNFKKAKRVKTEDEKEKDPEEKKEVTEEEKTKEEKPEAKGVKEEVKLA

On to `CC(C)=CCCc1c(C)ccc2c1C(=O)C(=O)C(C(C)C)=C2` [Compound 1, saprorthoquinone], for which the inhibition at 10 µM on IDO1 (setting [1]) and at IDO1 (setting [2]) was 85% each time. The IC50 (usually the concentration at which inhibition is half-maximal) came to 1760 ± 270 nM against IDO1 and 9.97 µM in the experiment on A549 cell line.

Consider `Cc1coc2c1C(=O)C(=O)c1c-2ccc2c(C)cccc12` [Compound 4], for which, at IDO1 (setting [1]), the inhibition (in general, the relative decrease from the control value, in per cent) at 10 µM came to 65%.

Take `CC(C)C1=Cc2ccc3c(c2C(=O)C1=O)CCCC3(C)C` [Compound 5]: at IDO1 (read-out: IDO1 Inhibition @ 10 μM (%)), the inhibition at 10 µM was 81%.

For `CC1COC2=C1C(=O)C(=O)c1c2ccc2c1CCCC2(C)C` (centres unmarked) [Compound 6], on IDO1 (setting [1]), the inhibition at 10 µM was 66%.

As to `Cc1ccc2c(c1CCC(=O)C(C)C)C(=O)C(=O)C(C(C)C)=C2` [Compound 7], the inhibition at 10 µM at IDO1 (setting [1]) was 86%.

Regarding `Cc1ccc2c(c1C(=O)CCC(C)(C)O)C(=O)C(=O)C(C(C)C)=C2` [Compound 8], the inhibition at 10 µM at IDO1 (setting [1]) came out at 73%.

Consider `COC(=O)[C@@]1(C)CCCc2c1ccc1c2C(=O)C(=O)C2=C1OCC2C` (some centres unmarked) [Compound 9], for which, on IDO1 (setting [1]), the inhibition at 10 µM is 61%.

Regarding `CC(C)C1=C(O)C(=O)C2=C(CC[C@H]3C(C)(C)CCC[C@]23C)C1=O` [Compound 10], the “IDO1 Inhibition @ 10 μM (%)” value at IDO1 (setting [3]) is reported as “almost lost their activity”. Moreover, on IDO1 (setting [1]), the inhibition at 10 µM is 2%.

Consider `Cc1ccc2c(c1CCCC(C)(C)O)C(=O)C(O)=C(C(C)C)C2=O` [Compound 11], for which, at IDO1 (setting [3]), the “IDO1 Inhibition @ 10 μM (%)” value is reported as “almost lost their activity”. Also, the inhibition at 10 µM at IDO1 (setting [1]) is 2%.

Take `Cc1cccc2c3c(ccc12)C(=O)C(C(C)C)=C(O)C3=O` [Compound 12]: the inhibition at 10 µM on IDO1 (setting [1]) is 13%.

Take `CC(C)C1=CC(=O)C([C@@]2(C)CCCC(C)(C)[C@@H]2CC=O)=CC1=O` [Compound 13]: at IDO1 (setting [1]), the inhibition at 10 µM was found to be 6%.

Take `CC(C)=CCCc1c(C)ccc2c1C(=O)C(O)=C(C(C)C)C2=O` [Compound 14]: the inhibition at 10 µM on IDO1 (setting [1]) came to 30%.

With `CC(C)C1=C(O)C(=O)C23OC2(C(=O)CC2C(C)(C)CCCC23C)C1=O` (centres unmarked) [Compound 15], on IDO1 (setting [3]), the “IDO1 Inhibition @ 10 μM (%)” value is recorded as “almost lost their activity”. Moreover, at IDO1 (setting [1]), the inhibition at 10 µM was 3%.

Turning to `Cc1ccc2c(c1/C=C\C(=O)C(C)(C)O)C(=O)C(O)=C(C(C)C)C2=O` [Compound 16], the “IDO1 Inhibition @ 10 μM (%)” value on IDO1 (setting [3]) is given as “almost lost their activity”. For the same compound, the inhibition at 10 µM at IDO1 (setting [1]) worked out at 3%.

For `Cc1ccc2c(c1CCC(O)C(C)(C)O)C(=O)C(=O)C(C(C)C)=C2` (centres unmarked) [Compound 17, 8-(3,4-Dihydroxy-4-methylpentyl)-3-isopropyl-7-methylnaphthalene-1,2-dione], the inhibition at 10 µM on IDO1 (setting [2]) is 90%. Moreover, the half-maximal inhibitory concentration (IC50) at IDO1 was found to be 740 ± 150 nM; with A549 cell line, 12.8 µM.

As for `Cc1ccc2c(c1CCC(=O)O)C(=O)C(=O)C(C(C)C)=C2` [Compound 18, 3-(6-Isopropyl-2-methyl-7,8-dioxo-7,8-dihydronaphthalen-1-yl)propanoic acid], the inhibition at 10 µM at IDO1 (setting [2]) is 86%. Besides, the half-inhibitory concentration (IC50) is 990 ± 240 nM at IDO1 and over 20 µM in the experiment on A549 cell line.

Regarding `Cc1ccc2c(c1CCC(N)=O)C(=O)C(=O)C(C(C)C)=C2` [Compound 19, 3-(6-Isopropyl-2-methyl-7,8-dioxo-7,8-dihydro-naphthalen-1-yl)propanamide], the inhibition at 10 µM on IDO1 (setting [2]) is 78%. In addition, the values for the IC50 on IDO1 and in the experiment on A549 cell line were 510 ± 40 nM and 14.5 µM, respectively.

For the compound `Cc1ccc2c(c1CCC(=O)Nc1cccc(F)c1)C(=O)C(=O)C(C(C)C)=C2` [Compound 21a, N-(3-Fluorophenyl)-3-(6-isopropyl-2-methyl-7,8-dioxo-7,8-dihydronaphthalen-1-yl)propanamide], the inhibition at 10 µM on IDO1 (setting [2]) was 80%. For the same compound, the IC50 against IDO1 worked out at 1330 ± 10 nM; with A549 cell line, 13.1 µM.

As for `Cc1ccc2c(c1CCC(=O)Nc1ccc(F)cc1)C(=O)C(=O)C(C(C)C)=C2` [Compound 21b, N-(4-Fluorophenyl)-3-(6-isopropyl-2-methyl-7,8-dioxo-7,8-dihydronaphthalen-1-yl)propanamide], the inhibition at 10 µM at IDO1 (setting [2]) is 64%. In the experiment with A549 cell line, this compound showed an IC50 of 14.8 µM.

With `Cc1ccc2c(c1CCC(=O)Nc1ccc(C(F)(F)F)cc1)C(=O)C(=O)C(C(C)C)=C2` [Compound 21c, 3-(6-Isopropyl-2-methyl-7,8-dioxo-7,8-dihydronaphthalen-1-yl)-N-(4-(trifluoromethyl)phenyl)propanamide], the inhibition at 10 µM on IDO1 (setting [2]) is 64%. The IC50 with A549 cell line is 7.49 µM.

On to `Cc1ccc2c(c1CCC(=O)Nc1ccc(F)c(Br)c1)C(=O)C(=O)C(C(C)C)=C2` [Compound 21d, N-(3-Bromo-4-fluorophenyl)-3-(6-isopropyl-2-methyl-7,8-dioxo-7,8-dihydronaphthalen-1-yl)propanamide], for which the inhibition at 10 µM on IDO1 (setting [2]) was 65%. In the experiment with A549 cell line, the half-maximal inhibitory concentration (IC50) was 9.31 µM.

Consider `COc1ccc(NC(=O)CCc2c(C)ccc3c2C(=O)C(=O)C(C(C)C)=C3)cc1` [Compound 21e, 3-(6-Isopropyl-2-methyl-7,8-dioxo-7,8-dihydronaphthalen-1-yl)-N-(4-methoxyphenyl)propanamide], for which the inhibition at 10 µM on IDO1 (setting [2]) is 66%. In addition, the 50% inhibitory concentration (IC50) in the experiment with A549 cell line was over 20 µM.

Take `Cc1ccc2c(c1CCC(=O)NCc1c[nH]c3ccccc13)C(=O)C(=O)C(C(C)C)=C2` [Compound 21f, N-((1H-indol-3-yl)methyl)-3-(6-isopropyl-2-methyl-7,8-dioxo-7,8-dihydronaphthalen-1-yl)propanamide]: the inhibition at 10 µM at IDO1 (setting [2]) is 79%. Further, the concentration for half-maximal inhibition (IC50) in the experiment on A549 cell line is over 20 µM.

As to `Cc1ccc2c(c1CCC(=O)NCc1cn(C)c3ccccc13)C(=O)C(=O)C(C(C)C)=C2` [Compound 21g, 3-(6-Isopropyl-2-methyl-7,8-dioxo-7,8-dihydronaphthalen-1-yl)-N-((1-methyl-1H-indol-3-yl)methyl)-propanamide], the inhibition at 10 µM on IDO1 (setting [2]) was 74%. In addition, in the experiment on A549 cell line, the 50% inhibitory concentration (IC50) amounted to 12.2 µM.

In the case of `Cc1ccc2c(c1CCCOS(C)(=O)=O)C(=O)C(=O)C(C(C)C)=C2` [Compound 24a, 3-(6-Isopropyl-2-methyl-7,8-dioxo-7,8-dihydronaphthalen-1-yl)propyl methanesulfonate], the inhibition at 10 µM at IDO1 (setting [2]) is 91%. The IC50 against IDO1 came to 720 ± 130 nM; with A549 cell line it was 11.8 µM.

In the case of `CCS(=O)(=O)OCCCc1c(C)ccc2c1C(=O)C(=O)C(C(C)C)=C2` [Compound 24b, 3-(6-Isopropyl-2-methyl-7,8-dioxo-7,8-dihydronaphthalen-1-yl)propyl ethanesulfonate], the inhibition at 10 µM at IDO1 (setting [2]) was 87%. Moreover, inhibition with A549 cell line was half-maximal at 15.5 µM (IC50).

For the compound `Cc1ccc2c(c1CCCOS(N)(=O)=O)C(=O)C(=O)C(C(C)C)=C2` [Compound 24c, 3-(6-Isopropyl-2-methyl-7,8-dioxo-7,8-dihydronaphthalen-1-yl)propyl sulfamate], the inhibition at 10 µM at IDO1 (setting [2]) was 86%. Further, in the experiment on A549 cell line, 11.1 µM corresponded to half-maximal inhibition (IC50).

On to `Cc1ccc2c(c1CCC(=O)Nc1ccccc1N)C(=O)C(=O)C(C(C)C)=C2` [Compound 27a, N-(2-Aminophenyl)-3-(6-isopropyl-2-methyl-7,8-dioxo-7,8-dihydronaphthalen-1-yl)propanamide], for which, on IDO1 (setting [2]), the inhibition at 10 µM is 88%. Moreover, the half-maximal inhibitory concentration (IC50) against IDO1 was 720 ± 100 nM; on HDAC1, over 100 µM; with A549 cell line, 17.8 µM.

`Cc1ccc2c(c1CCC(=O)Nc1cc(F)ccc1N)C(=O)C(=O)C(C(C)C)=C2` [Compound 27b, N-(2-Amino-5-fluorophenyl)-3-(6-isopropyl-2-methyl-7,8-dioxo-7,8-dihydronaphthalen-1-yl)propanamide]: on IDO1 (setting [2]), the inhibition at 10 µM was 84%. For the same compound, the concentration for half-maximal inhibition (IC50) at HDAC1 is over 100 µM; in the experiment on A549 cell line, 9.51 µM.

Values taken from publication PMC7582476, “Discovery of Novel Indoleamine 2,3-Dioxygenase 1 (IDO1) and Histone Deacetylase 1 (HDAC1) Dual Inhibitors Derived from the Natural Product Saprorthoquinone” (Molecules, 2020).
